From patent publication US8637549B2, “Pyridons as PDK1 inhibitors” (Boehringer Ingelheim International GmbH, priority 2008, dated 2014)
Marks after values point to notes of the source that are not given here.

What was measured:
[1] = molecular target: T1, ΔPH-PDK1 (shortened PDK1 enzyme aa 51-359; Q66A mutation) (Homo sapiens, UniProt O15530, Q66A); assay: PDK1 kinase assay II; type: biochemical; conditions: 10 μM compound, residual enzyme activity relative to DMSO control, values marked with asterisk (*)
T1 construct: a shortened PDK1 enzyme (aa 51-359; Q66A mutation) is used; His6 (N, cleaved yes); made in house
T1 sequence (O15530 51-359 Q66A): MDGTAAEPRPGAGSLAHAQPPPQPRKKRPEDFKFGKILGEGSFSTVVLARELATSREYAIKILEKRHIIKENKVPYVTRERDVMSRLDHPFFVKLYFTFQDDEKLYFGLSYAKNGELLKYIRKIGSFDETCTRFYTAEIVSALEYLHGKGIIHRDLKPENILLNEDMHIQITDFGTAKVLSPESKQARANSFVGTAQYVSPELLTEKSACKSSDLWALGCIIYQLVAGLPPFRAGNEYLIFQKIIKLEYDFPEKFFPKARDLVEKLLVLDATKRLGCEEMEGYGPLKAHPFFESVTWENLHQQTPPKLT
Procedure: Another assay was developed in which a shortened PDK1 enzyme (aa 51-359; Q66A mutation) is used that carries in the N-terminal position a His6 tag that is cleaved during purification. (ΔPH-PDK1). […]
The reaction is started by adding the ATP solution and the mixture is incubated for 120 min at ambient temperature; at the start of the reaction the dishes are shaken gently. […] Then the plate is stuck down with sealing tape, 25 μL/well of scintillation solution (Microscint 0; Messrs. Perkin Elmer; No. 6013611) are added and the amount of P33 precipitated is measured using the Wallac Betacounter. The measured data are evaluated using Graphpad Prism software.
(§1) The % CTL values indicate the residual activity of the enzyme after the addition of the inhibitory compound in the solvent DMSO in relation to the enzyme activity in the solvent DMSO without the addition of a compound (control). The majority of the values were determined using the PDK1 kinase assay III described hereinbefore. The values marked with an asterisk (*) were determined using the PDK1 kinase assay II described hereinbefore.

His6-PDK1 (aa 52-556) = molecular target: T2, His6-PDK1 (aa 52-556) (Homo sapiens, UniProt O15530); assay: PDK1 kinase assay III (with Tween 20); type: biochemical; conditions: 10 μM compound, residual enzyme activity relative to DMSO control, unmarked values, read-out: % CTL
T2 construct: 15 μL His6-PDK1 (aa 52-556) 3.33 ng/well) and PDKtide; host or cells: baculovirus-infected insect cells
T2 sequence (O15530 52-556): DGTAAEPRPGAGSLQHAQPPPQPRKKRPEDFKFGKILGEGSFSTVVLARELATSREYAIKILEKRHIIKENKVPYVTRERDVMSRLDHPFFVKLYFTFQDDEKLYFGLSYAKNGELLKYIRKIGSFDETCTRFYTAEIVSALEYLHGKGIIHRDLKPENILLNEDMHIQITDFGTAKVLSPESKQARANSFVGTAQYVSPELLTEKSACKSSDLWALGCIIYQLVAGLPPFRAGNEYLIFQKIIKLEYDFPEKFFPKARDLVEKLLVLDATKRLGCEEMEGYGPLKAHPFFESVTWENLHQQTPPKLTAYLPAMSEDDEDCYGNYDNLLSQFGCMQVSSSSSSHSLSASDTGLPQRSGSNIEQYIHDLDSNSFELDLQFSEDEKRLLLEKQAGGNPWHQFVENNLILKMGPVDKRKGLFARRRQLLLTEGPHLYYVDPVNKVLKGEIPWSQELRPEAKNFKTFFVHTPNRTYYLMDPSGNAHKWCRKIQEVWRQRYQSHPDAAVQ
Procedure: Another PDK1 assay was developed which by comparison with PDK1 assay 1 additionally contains Tween 20:
The following components are combined in a well of a 96-well round-based dish (Messrs. Greiner bio-one, No. 650101): • 15 μL of compound to be tested in varying concentrations (e.g. Starting at 10 μM, and diluted in steps of 1:5) in APT buffer (50 mM tris/C1 pH7.5; 0.05% β-mercaptoethanol; 10 mM Mg-acetate; 0.0166% Tween 20; 3.33% DMSO) • 15 μL His6-PDK1 (aa 52-556) 3.33 ng/well) and PDKtide (KTFCGTPEYLAPEVRRE […]), synthesised by Pepceuticals Limited, Nottingham, United Kingdom; 25 μM final concentration); His6-PDK1 and PDKtide are together diluted accordingly in assay buffer (50 mM tris pH 7.5, 0.05% β-mercaptoethanol, 10 mM Mg-acetate); PDKtide is present in this mixture as an 83.3 μM solution. These 30 μL are routinely incubated for 30 min at RT. • 20 μL ATP solution (25 μM ATP with 1.0 μCi/well gamma-P33-ATP). The final concentration of Tween 20 is 0.005%.
The reaction is started by adding the ATP solution and the mixture is incubated for 90 min at ambient temperature; at the start of the reaction the dishes are shaken gently. The reaction is stopped by the addition of 50 μL/well of 500 mM phosphoric acid (H3PO4) and incubated for about 20 min at ambient temperature. The precipitate is transferred by harvesting onto filter plates (96-well microtitre filter plate: UniFilter GF/C; Messrs Perkin Elmer; No. 6005174), then washed 6 times with 50 mM H3PO4 and dried at 60° C. Then the plate is stuck down with sealing tape, 25 μL/well of scintillation solution (Microscint 0; Messrs. Perkin Elmer; No. 6013611) are added and the amount of P33 precipitated is measured using the Wallac Betacounter. The measured data are evaluated using Graphpad Prism software.
as §1

Structure (SMILES)	% CTL [1]	remaining activity at 10 µM (His6-PDK1 (aa 52-556))
CN1CCC(N(C)c2ccc(Nc3ncc4cc(C#CCNC(=O)c5cccn(Cc6ccc(C(F)(F)F)nc6)c5=O)ccc4n3)cc2)CC1 [II-8, N-{3-[2-({4-[methyl(1-methylpiperidin-4-yl)amino]phenyl}amino)quinazolin-6-yl]prop-2-yn-1-yl}-2-oxo-1-{[6-(trifluoromethyl)pyridin-3-yl]methyl}-1,2-dihydropyridine-3-carboxamide]	47.0* %	–
O=C1Nc2cc(/C=C/CNC(=O)c3cccn(Cc4ccccn4)c3=O)ccc2/C1=C/c1ccc[nH]1 [I-6, 2-oxo-N-{(2E)-3-[(3Z)-2-oxo-3-(1H-pyrrol-2-ylmethylidene)-2,3-dihydro-1H-indol-6-yl]prop-2-en-1-yl}-1-(pyridin-2-ylmethyl)-1,2-dihydropyridine-3-carboxamide]	–	20.1%
CN(C)Cc1ccc(Nc2ncc3cc(C#CCNC(=O)c4cccn(Cc5cccnc5)c4=O)ccc3n2)cc1 [II-5, N-{3-[2-({4-[(dimethylamino)methyl]phenyl}amino)quinazolin-6-yl]prop-2-yn-1-yl}-2-oxo-1-(pyridin-3-ylmethyl)-1,2-dihydropyridine-3-carboxamide]	15.6* %	–
O=C1Nc2cc(/C=C/CNC(=O)c3cccn(Cc4ccccn4)c3=O)ccc2/C1=C/c1cnc[nH]1 [I-9, N-{(2E)-3-[(3Z)-3-(1H-imidazol-5-ylmethylidene)-2-oxo-2,3-dihydro-1H-indol-6-yl]prop-2-en-1-yl}-2-oxo-1-(pyridin-2-ylmethyl)-1,2-dihydropyridine-3-carboxamide]	–	17.7%
